Where two headings read alike, the source gives them in different places. Starred links: 1 amine or outer side, 2 acyl side, 3 side chain; linkers in the order of their positions; H or OH if unused. Positions of bridges follow the written chain, without caps; N, C: chain ends. Non-standard residues stand in square brackets, D forms with d. Residues, ends and D or L forms follow the SMILES beside them. *: point of attachment. Lys(5-FITC)NH2 = NC(=O)[C@H](CCCCNC(=S)Nc1ccc2c(c1)C(=O)OC21c2ccc(O)cc2Oc2cc(O)ccc21)N*; Trimesoyl = O=C(c1cc(C(=O)[*:2])cc(C(=O)[*:3])c1)[*:1]; dPhe(4-CN) = N#Cc1ccc(C[C@@H](N)C(=O)O)cc1; Phe(4-F) = N[C@@H](Cc1ccc(F)cc1)C(=O)O; dPhe(3-F) = N[C@H](Cc1cccc(F)c1)C(=O)O; 2Nal = N[C@@H](Cc1ccc2ccccc2c1)C(=O)O; dPhe(2-F) = N[C@H](Cc1ccccc1F)C(=O)O; Pip = O=C(O)[C@@H]1CCCCN1; Dap = NC[C@H](N)C(=O)O
Tests used:
Pin1 = molecular target: T1, Pin1 (Homo sapiens, UniProt Q13526, S16A/Y23A); assay: Pin1 binding by FA (FITC-labeled peptides); details: FITC-labeled peptide, FA; read-out: KD
T1 construct: The full-length human S16A/Y23A mutant Pin1 was expressed and purified from E. coli; made in house
Description: FA experiments were carried out by incubating 100 nM FITC-labeled peptide with varying concentrations of protein in 20 mM HEPES (pH 7.4), 150 mM NaCl, 2 mM magnesium acetate, and 0.1% bovine serum albumin (BSA) for 2 h at room temperature. The FA values were measured on a Molecular Devices Spectramax M5 plate reader, with excitation and emission wavelengths at 485 and 525 nm, respectively. Equilibrium dissociation constants (KD) were determined by plotting the FA values as a function of protein concentration and fitting the curve to the following equation:

[1] = system: cell type (e.g., HeLa cells); assay: Cellular uptake efficiency of cyclic CPPs; assay type: cell-based; details: relative to cFΦR4 (290-1F, 100%)
Description: In particular embodiments, uptake efficiency is determined by comparing (i) the amount of a cyclic cell-penetrating peptide of the invention internalized by a cell type (e.g., HeLa cells) to (ii) the amount of c(FΦRRRRQ) (290-1F) internalized by the same cell type. To measure cellular uptake efficiency, the cell type may be incubated in the presence of a cell-penetrating peptide of the invention for a specified period of time (e.g., 30 minutes, 1 hour, 2 hours, etc.) after which the amount of the cell-penetrating peptide internalized by the cell is quantified. Separately, the same concentration of c(FΦRRRRQ) (290-1F) is incubated in the presence of the cell type over the same period of time, and the amount of the second peptide internalized by the cell is quantified. Quantification can be achieved by fluorescently labeling the cell-penetrating peptide (e.g., with a FTIC dye) and measuring the fluorescence intensity using techniques well-known in the art.
(§1) Also discussed herein are the CPP sequences in Table 16. All uptake/delivery efficiencies are in Table 17 are relative to that of cFΦR4 (290-1F, 100%). SUV1 are small unilamellar vesicles that mimic the neutral outer membrane of mammalian cells [45% phosphatidylcholine (PC), 20% phosphatidylethanolamine (PE), 20% sphingomyelin (SM), and 15% cholesterol (CHO)]. SUV2 are small unilamellar vesicles that mimic the negatively charged endosomal membrane of mammalian cells [50% PC, 20% PE, 10% phosphatidylinositol (PI), and 20% bis(monoacylglycerol)phosphate].

[2] = system: SUV1 (vesicles that mimic the neutral outer membrane of mammalian cells); assay: Fluorescence polarization membrane binding, SUV1; details: pH 7.4; read-out: Membrane Binding KD (mM) SUV1 pH 7.4
From the text: as §1
(§2) Measurements were carried out fluorescence polarization using FITC-labeled cyclic peptides against increasing concentrations of vesicles. Experiments were performed at pH 7.4 and 5.5 (pH inside late endosomes).

[3] = system: SUV2 (vesicles that mimic the negatively charged endosomal membrane of mammalian cells); assay: Fluorescence polarization membrane binding, SUV2
From the text: as §1, §2

[4] = pH 5.5, read-out: Membrane Binding KD (mM) SUV2 pH 5.5
[5] = pH 7.4, read-out: Membrane Binding KD (mM) SUV2 pH 7.4

Compound	Kd (Pin1) [µM]	further results
CC(C)[C@H]1NC(=O)c2cc3cc(c2)C(=O)NC[C@H](NC(=O)[C@@H](C)NC(=O)[C@H](C)NC(=O)[C@H](CCCNC(=N)N)NC(=O)[C@H](Cc2ccc4ccccc4c2)NC(=O)[C@@H]2CCCCN2C(=O)[C@@H]([C@H](C)O)NC(=O)[C@H](Cc2ccc(F)cc2)NC1=O)C(=O)N[C@@H](Cc1ccccc1)C(=O)N[C@@H](Cc1ccc2ccccc2c1)C(=O)N[C@@H](CCCNC(=N)N)C(=O)N[C@@H](CCCNC(=N)N)C(=O)N[C@@H](CCCNC(=N)N)C(=O)N[C@@H](CCCNC(=N)N)C(=O)N[C@H](C(=O)N[C@@H](CCCCN)C(N)=O)CNC3=O [Peptide 34, bicyclo[Tm-(D-Val-4-Fpa-D-Thr-Pip-Nal-Arg-Ala-D-Ala)-Dap-(Phe-Nal-Arg-Arg-Arg-Arg-Dap)]-Lys] ([dV][Phe(4-F)][dT][Pip][2Nal]RA[dA][Dap]F[2Nal]RRRR[Dap]K-NH2; linker N-9-16 via Trimesoyl; C-terminus assumed)	1.07 ± 0.16	–
C[C@@H]1NC(=O)[C@H](CCCNC(=N)N)NC(=O)[C@H](Cc2ccc3ccccc3c2)NC(=O)[C@@H]2CCCCN2C(=O)[C@@H]([C@H](C)O)NC(=O)[C@H](Cc2ccc(F)cc2)NC(=O)[C@@H](Cc2ccccc2F)NC(=O)c2cc3cc(c2)C(=O)NC[C@H](NC(=O)[C@@H](Cc2ccccc2)NC1=O)C(=O)N[C@@H](Cc1ccccc1)C(=O)N[C@@H](Cc1ccc2ccccc2c1)C(=O)N[C@@H](CCCNC(=N)N)C(=O)N[C@@H](CCCNC(=N)N)C(=O)N[C@@H](CCCNC(=N)N)C(=O)N[C@@H](CCCNC(=N)N)C(=O)N[C@H](C(=O)N[C@@H](CCCCN)C(N)=O)CNC3=O [Peptide 35, bicyclo[Tm-(D-2-Fpa-Fpa-D-Thr-Pip-Nal-Arg-Ala-D-Phe)-Dap-(Phe-Nal-Arg-Arg-Arg-Arg-Dap)]-Lys] ([dPhe(2-F)][Phe(4-F)][dT][Pip][2Nal]RA[dF][Dap]F[2Nal]RRRR[Dap]K-NH2; linker N-9-16 via Trimesoyl; C-terminus assumed)	0.59 ± 0.05	–
C[C@@H]1NC(=O)[C@H](CCCNC(=N)N)NC(=O)[C@H](Cc2ccc3ccccc3c2)NC(=O)[C@@H]2CCCCN2C(=O)[C@@H]([C@H](C)O)NC(=O)[C@H](Cc2ccc(F)cc2)NC(=O)[C@@H](Cc2cccc(F)c2)NC(=O)c2cc3cc(c2)C(=O)NC[C@H](NC(=O)[C@@H](Cc2ccccc2)NC1=O)C(=O)N[C@@H](Cc1ccccc1)C(=O)N[C@@H](Cc1ccc2ccccc2c1)C(=O)N[C@@H](CCCNC(=N)N)C(=O)N[C@@H](CCCNC(=N)N)C(=O)N[C@@H](CCCNC(=N)N)C(=O)N[C@@H](CCCNC(=N)N)C(=O)N[C@H](C(=O)N[C@@H](CCCCN)C(N)=O)CNC3=O [Peptide 36, bicyclo[Tm-(D-3-Fpa-Fpa-D-Thr-Pip-Nal-Arg-Ala-D-Phe)-Dap-(Phe-Nal-Arg-Arg-Arg-Arg-Dap)]-Lys] ([dPhe(3-F)][Phe(4-F)][dT][Pip][2Nal]RA[dF][Dap]F[2Nal]RRRR[Dap]K-NH2; linker N-9-16 via Trimesoyl; C-terminus assumed)	0.39 ± 0.05	–
C[C@@H]1NC(=O)[C@H](CCCNC(=N)N)NC(=O)[C@H](Cc2ccc3ccccc3c2)NC(=O)[C@@H]2CCCCN2C(=O)[C@@H]([C@H](C)O)NC(=O)[C@H](Cc2ccc(F)cc2)NC(=O)[C@@H](Cc2ccc(C#N)cc2)NC(=O)c2cc3cc(c2)C(=O)NC[C@H](NC(=O)[C@@H](Cc2ccccc2)NC1=O)C(=O)N[C@@H](Cc1ccccc1)C(=O)N[C@@H](Cc1ccc2ccccc2c1)C(=O)N[C@@H](CCCNC(=N)N)C(=O)N[C@@H](CCCNC(=N)N)C(=O)N[C@@H](CCCNC(=N)N)C(=O)N[C@@H](CCCNC(=N)N)C(=O)N[C@H](C(=O)N[C@@H](CCCCN)C(N)=O)CNC3=O [Peptide 38, bicyclo[Tm-(D-4-CyanoPhe-Fpa-D-Thr-Pip-Nal-Arg-Ala-D-Phe)-Dap-(Phe-Nal-Arg-Arg-Arg-Arg-Dap)]-Lys] ([dPhe(4-CN)][Phe(4-F)][dT][Pip][2Nal]RA[dF][Dap]F[2Nal]RRRR[Dap]K-NH2; linker N-9-16 via Trimesoyl; C-terminus assumed)	0.35 ± 0.04	–
C[C@@H]1NC(=O)[C@H](CCCNC(=N)N)NC(=O)[C@H](Cc2ccc3ccccc3c2)NC(=O)[C@@H]2CCCCN2C(=O)[C@@H]([C@H](C)O)NC(=O)[C@H](Cc2ccc(F)cc2)NC(=O)[C@@H](Cc2ccccc2)NC(=O)c2cc3cc(c2)C(=O)NC[C@H](NC(=O)[C@@H](Cc2ccccc2)NC1=O)C(=O)N[C@@H](CCCNC(=N)N)C(=O)N[C@@H](CCCNC(=N)N)C(=O)N[C@@H](CCCNC(=N)N)C(=O)N[C@@H](CCCNC(=N)N)C(=O)N[C@@H](Cc1ccc2ccccc2c1)C(=O)N[C@@H](Cc1ccccc1)C(=O)N[C@H](C(=O)N[C@@H](CCCCN)C(N)=O)CNC3=O [Peptide 42, bicyclo[Tm-(D-Phe-Fpa-D-Thr-Pip-Nal-Arg-Ala-D-Phe)-Dap-(Arg-Arg-Arg-Arg-Nal-Phe-Dap)]-Lys] ([dF][Phe(4-F)][dT][Pip][2Nal]RA[dF][Dap]RRRR[2Nal]F[Dap]K-NH2; linker N-9-16 via Trimesoyl; C-terminus assumed)	0.98 ± 0.18	–
C[C@@H]1NC(=O)[C@H](CCCNC(=N)N)NC(=O)[C@H](Cc2ccc3ccccc3c2)NC(=O)[C@@H]2CCCCN2C(=O)[C@@H]([C@H](C)O)NC(=O)[C@H](Cc2ccc(F)cc2)NC(=O)[C@@H](Cc2ccccc2)NC(=O)c2cc3cc(c2)C(=O)NC[C@H](NC(=O)[C@@H](Cc2ccccc2)NC1=O)C(=O)N[C@@H](CCCNC(=N)N)C(=O)N[C@@H](CCCNC(=N)N)C(=O)N[C@@H](Cc1ccc2ccccc2c1)C(=O)N[C@@H](Cc1ccccc1)C(=O)N[C@@H](CCCNC(=N)N)C(=O)N[C@@H](CCCNC(=N)N)C(=O)N[C@H](C(=O)N[C@@H](CCCCN)C(N)=O)CNC3=O [Peptide 43, bicyclo[Tm-(D-Phe-Fpa-D-Thr-Pip-Nal-Arg-Ala-D-Phe)-Dap-(Arg-Arg-Nal-Phe-Arg-Arg-Dap)]-Lys] ([dF][Phe(4-F)][dT][Pip][2Nal]RA[dF][Dap]RR[2Nal]FRR[Dap]K-NH2; linker N-9-16 via Trimesoyl; C-terminus assumed)	1.38 ± 0.16	–
C[C@@H]1NC(=O)[C@H](CCCNC(=N)N)NC(=O)[C@H](Cc2ccc3ccccc3c2)NC(=O)[C@@H]2CCCCN2C(=O)[C@@H]([C@H](C)O)NC(=O)[C@H](Cc2ccc(F)cc2)NC(=O)[C@@H](Cc2ccccc2)NC(=O)c2cc3cc(c2)C(=O)NC[C@H](NC(=O)[C@@H](Cc2ccccc2)NC1=O)C(=O)N[C@@H](CCCNC(=N)N)C(=O)N[C@@H](Cc1ccc2ccccc2c1)C(=O)N[C@@H](CCCNC(=N)N)C(=O)N[C@@H](Cc1ccccc1)C(=O)N[C@@H](CCCNC(=N)N)C(=O)N[C@@H](CCCNC(=N)N)C(=O)N[C@H](C(=O)N[C@@H](CCCCN)C(N)=O)CNC3=O [Peptide 44, bicyclo[Tm-(D-Phe-Fpa-D-Thr-Pip-Nal-Arg-Ala-D-Phe)-Dap-(Arg-Nal-Arg-Phe-Arg-Arg-Dap)]-Lys] ([dF][Phe(4-F)][dT][Pip][2Nal]RA[dF][Dap]R[2Nal]RFRR[Dap]K-NH2; linker N-9-16 via Trimesoyl; C-terminus assumed)	0.45 ± 0.05	–
N=C(N)NCCC[C@@H]1NC(=O)[C@H](CCC(=O)N[C@@H](CCCCNC(=S)Nc2ccc3c(c2)C(=O)OC32c3ccc(O)cc3Oc3cc(O)ccc32)C(N)=O)NC(=O)[C@H](CCCNC(=N)N)NC(=O)[C@H](CCCNC(=N)N)NC(=O)[C@H](Cc2ccccc2)NC(=O)[C@H](Cc2ccc3ccccc3c2)NC(=O)[C@H](CCCNC(=N)N)NC1=O [Peptide 290-2F, c(RRΦFRRQ)] (cyclo(RR[2Nal]FRRE(Lys(5-FITC)NH2)))	–	Uptake Efficiency (%) [1]: 47%; Kd [2]: 1.95 mM; Kd [3, 4]: 0.025 mM; Kd [3, 5]: 0.69 mM
N=C(N)NCCC[C@@H]1NC(=O)[C@H](CCC(=O)N[C@@H](CCCCNC(=S)Nc2ccc3c(c2)C(=O)OC32c3ccc(O)cc3Oc3cc(O)ccc32)C(N)=O)NC(=O)[C@H](CCCNC(=N)N)NC(=O)[C@H](Cc2ccc3ccccc3c2)NC(=O)[C@H](CCCNC(=N)N)NC(=O)[C@H](Cc2ccccc2)NC(=O)[C@H](CCCNC(=N)N)NC1=O [Peptide 290-3F, c(RRFRΦRQ)] (cyclo(RRFR[2Nal]RE(Lys(5-FITC)NH2)))	–	Uptake Efficiency (%) [1]: 163%; Kd [2]: 0.22 mM; Kd [3, 4]: 0.26 mM; Kd [3, 5]: 0.4 mM
bicyclo[Tm-(D-4-Phe-Fpa-D-Ile-Pip-Nal-Arg-Ala-D-Phe)-Dap-(Phe-Nal-Arg-Arg-Arg-Arg-Dap)]-Lys [Peptide 39]	0.46 ± 0.17	–
bicyclo[Tm-(D-4-Phe-Fpa-D-Nle-Pip-Nal-Arg-Ala-D-Phe)-Dap-(Phe-Nal-Arg-Arg-Arg-Arg-Dap)]-Lys [Peptide 40]	0.71 ± 0.12	–
bicyclo[Tm-(D-4-Phe-Fpa-D-homoGlu-Pip-Nal-Arg-Ala-D-Phe)-Dap-(Phe-Nal-Arg-Arg-Arg-Arg-Dap)]-Lys [Peptide 41]	0.87 ± 0.08	–

Reference: patent US10815276B2, “Cell penetrating peptides and methods of making and using thereof” (Entrada Therapeutics, Inc., priority 2014, dated 2020)
